Experimental data taken from patent publication US11116799B2, “Generation of uniform hepatocytes from human embryonic stem cells by inhibiting TGF-beta and methods of maintaining hepatic cultures” (Wisconsin Alumni Research Foundation, priority 2016, dated 2021).
Several values for one entry are separate records, joined by “and”; a condition that tells them apart may be missing. Equal values may be shown once. Entries after “also recorded” stand apart in the source; their conditions may differ.

Key:
[1] = test system: primary mouse hepatocytes; assay: RNA-Seq gene expression in primary mouse hepatocytes treated with kinase inhibitors; conditions: 10 μM, 72 hours
Description: The next step was to determine if the PI3/Akt and MAPK pathways are involved in maintenance of hepatocyte maturation. We investigated whether small molecule inhibition of these pathways would mimic let-7's action and reduce the loss of mature function of hepatocytes in culture after removal from their microenvironment. […] Then, expression of the top ten important metabolic enzymes (CYPs, UGTs and transporters) by RNA-Seq with uncultured fresh hepatocytes and control vehicle hepatocytes treated for 72 hours was compared.
Hepatocytes from 6 black mice livers were isolated by perfusion following standard protocol and cultured on Matrigel coated plates in hepatocyte growth medium (Promocell). Whole developing livers from 6 black mice were used for RNA isolation with Trizol for let-7c measurements.
(§1) Total RNA (including microRNA) from all cells, which were not mentioned otherwise, were isolated using RNAeasy Plus Kit […] following manufacturers protocol. RNA-Seq was performed by LM-Seq (Illumina). MicroRNAs were sequenced using Illumina's small RNA sequencing kit. Expression of let-7 and U6 snoRNA were measured by quantitative PCR using ABI's kit. Let-7c expression levels were normalized by U6 snoRNA expression (RQ or relative quantity values, error bars representing standard error, RQ min and RQ max).
Multiple batches of cryopreserved induction qualified human hepatocytes (each batch being from one donor) were purchased from Life Technologies and cultured on Matrigel coated plates in hepatocyte growth medium (PromoCell). For dedifferentiation studies, hepatocytes from batches Hu4260, Hu8135, Hu4279 and Hu8137 were used after mixing equal number of live cells. For small molecule treatments, batch Hu4260 was used. Mouse hepatocytes were isolated from Black 6 mice livers by perfusion following standard protocol and cultured on Matrigel coated plates in hepatocyte growth medium (Promocell).
(§2) Total RNA were isolated using RNAeasy Plus Kit (Qiagen) following manufacturers protocol and qualified with the Life Technologies Qubit fluorometer and Agilent Bioanalyzer. […] Final indexed cDNA libraries were pooled and sequenced on an Illumina HiSeq 2500. Base-calling and demultiplexing were performed using Casava (v1.8.2). Sequences were filtered and trimmed to remove low quality reads, adapters, and other sequencing artifacts. The remaining reads were aligned to a reference database comprising only RefSeq-validated transcripts (i.e., assigned an “NM_” accession). Mouse samples were aligned to the mm10 assembly, and human samples were aligned to the hg19 assembly. […] Reads with more than 200 alignments were excluded from further analysis. […] All RNA-seq results have been deposited at NCBI's GEO under Accession No. GSE94353.
The inventors next investigated whether the MAPK and PI3/Akt pathways contributed to the dedifferentiation of hepatocytes. […] Rapamycin was included as a control, which is an inhibitor of the mTOR pathway, a serine/threonine kinase involved in cell signaling not identified as a key pathway in our analysis.

[2] = test system: HepG2 cells
Protocol: Both types of cells were treated with a vehicle or small molecule for 72 hours and genes were quantified using RNA-Seq.
as §1, §2
(§3) To test whether the upregulation of metabolic genes at the mRNA level translated into functional metabolic improvement, acetaminophen (APAP) metabolism was assessed by LC/MS/MS.

[3] = test system: primary human hepatocytes (PHHs); assay: RNA-Seq gene expression in MAPK inhibitor treated primary human hepatocytes; assay type: cell-based
Protocol: […]. […] […].
For small RNA-Seq profiling, hepatocytes from Hu8082 were used; for de-differentiation time course and let-7c transduction, hepatocytes from Hu4260, Hu8135, Hu4279 and Hu8137 were used. For both experiments, cells from all 4 donors were mixed in equal numbers after assessment of viability. For small molecule treatments, batch Hu4260 was used.
RNA-Seq was performed by LM-Seq (Illumina).
For small molecule treatments, batch Hu4260 was used.
. To ascertain that the increase in metabolic enzymes took place through specific MAPK inhibition, PHHs were treated with a second MAPK inhibitor, PD0325901, for 72 hours, followed by RNA-Seq analysis (Supplementary Table 4). […].

[4] = test system: CYP2C9; conditions: HepG2, treated 72 hours
Protocol: (§4) CYP2C9 and 3A4 metabolism were measured using CYP450 Glo assay (Promega). In short, substrates were added to the media and incubated for 72 hours and the amount of metabolites generated were measured by adding the detection reagent and quantifying the luminescence in a Tecan® plate reader. Background was measured by incubating the substrates for 72 hours in the same media without cells. Cell counting for proliferation assay was carried out by dye exclusion in an automated cell counter (ThermoFisher).
CYP2C9 and 3A4 metabolism were measured using CYP450 Glo assay (Promega). Substrates were added to the media and incubated for 72 hours and the amount of metabolite generated were measured by adding the detection reagent and quantifying the luminescence in a Tecan plate reader. Background was measured by incubating the substrates for 72 hours in the same media without cells.

[5] = test system: HepG2 cells; assay: HepG2 viability / cell growth (cell counting by dye exclusion); assay type: cell-based, human; conditions: HepG2, 72 hours, compared to vehicle control
Protocol: as §4

[6] = test system: HepG2 cells; conditions: HepG2 treated 72 hours, 10 uM APAP for 1 hour
Description: Samples for LC/MS/MS analysis were processed by solid-phase extraction, and calibrant curves (7 points) for all compounds were generated by spiking standards (Sigma) in E6 media and processed in parallel with samples. An internal standard of deuterated naproxen was included for all analytes. Samples were run on a 0.2×100 mm Cortecs C18 column (Waters Corporation, Milford Mass.) using a Waters Acquity UPLC system coupled to an AB/Sciex Q-Trap 5500 hybrid triple quadrupole instrument (Framingham Mass.). Analytes were detected using multiple-reaction-monitoring with three transitions for each compound being monitored. Each sample was analyzed in triplicate with blanks between each sample analysis. Quantitation was based on area under the curve of the analyte relative to the internal standard and was modeled with a quadratic fit with 1/× weighting using the MultiQuant software (Sciex, Framingham Mass.). […] Average calculated concentrations for each analyte are reported. […] Background was determined by measuring metabolites in media incubated with acetaminophen only for 1 hour and any samples below background were considered nil.
as §3

[7] = test system: ALB-GFP/tdTomato-AFP marker cell line; conditions: marker line differentiated with TGFB and NOTCH inhibition in E6, then treated 72 hours
Description: We next differentiated the ALB-GFP/tdTomato-AFP marker cell line to hepatocytes with TGFB and NOTCH inhibition in defined E6 medium.

[8] = primary human hepatocytes, treated 72 hours

**Q.** Which ABCC2 gene expression [1] does the source give for `N#CC(=C(/N)Sc1ccccc1N)/C(C#N)=C(\N)Sc1ccccc1N` [U0126] here?
**A.** The ABCC2 gene expression was 415.86 transcripts per million.

**Q.** And the CYP1A2 gene expression [1]?
**A.** The CYP1A2 gene expression was 1271.98 transcripts per million.

**Q.** What about the CYP2C9 gene expression [1] of the same molecule?
**A.** The CYP2C9 gene expression was 2676.68 transcripts per million.

**Q.** And the CYP2E1 gene expression [1]?
**A.** Its CYP2E1 gene expression is 217.96 transcripts per million.

**Q.** And the CYP3A11 gene expression [1]?
**A.** Its CYP3A11 gene expression is 632.32 transcripts per million.

**Q.** And the CYP3A25 gene expression [1]?
**A.** The CYP3A25 gene expression was 112.18 transcripts per million.

**Q.** And the UGT1A6A gene expression [1]?
**A.** The UGT1A6A gene expression was 232.80 transcripts per million.

**Q.** And the UGT1A9 gene expression [1]?
**A.** The UGT1A9 gene expression was 184.63 transcripts per million.

**Q.** What about the UGT1A10 gene expression [1] of the same molecule?
**A.** Its UGT1A10 gene expression is 2.44 transcripts per million.

**Q.** What about the UGT2B5 gene expression [1] of the same molecule?
**A.** The UGT2B5 gene expression was 995.27 transcripts per million.

**Q.** And the “downregulation of fetal gene AFP compared with untreated control” value ([2]; HepG2, 72 hours)?
**A.** The value was “over 3 orders of magnitude”.

**Q.** What about the AFP gene expression ([2]; HepG2, treated 72 hours) of the same molecule?
**A.** The AFP gene expression was 4.74 transcripts per million.

**Q.** What about the ALB gene expression ([2]; HepG2, treated 72 hours) of the same molecule?
**A.** Its ALB gene expression is 2083.6 transcripts per million.

**Q.** And the CD81 gene expression ([2]; HepG2, treated 72 hours)?
**A.** Its CD81 gene expression is 634.68 transcripts per million.

**Q.** What about the CYP1A2 gene expression ([2]; HepG2, treated 72 hours) of the same molecule?
**A.** The CYP1A2 gene expression was 0.68 transcripts per million.

**Q.** And the CYP1B1 gene expression ([2]; HepG2, treated 72 hours)?
**A.** The CYP1B1 gene expression was 3.07 transcripts per million.

**Q.** What about the CYP2C9 gene expression ([2]; HepG2, treated 72 hours) of the same molecule?
**A.** Its CYP2C9 gene expression is 33.45 transcripts per million.

**Q.** And the CYP2D6 gene expression ([2]; HepG2, treated 72 hours)?
**A.** Its CYP2D6 gene expression is 4.05 transcripts per million.

**Q.** What about the CYP2E1 gene expression ([2]; HepG2, treated 72 hours) of the same molecule?
**A.** Its CYP2E1 gene expression is 14.61 transcripts per million.

**Q.** And the CYP3A4 gene expression ([2]; HepG2, treated 72 hours)?
**A.** Its CYP3A4 gene expression is 13.37 transcripts per million.

**Q.** What about the SLC10A1 gene expression ([2]; HepG2, treated 72 hours) of the same molecule?
**A.** The SLC10A1 gene expression was 10.57 transcripts per million.

**Q.** And the SLCO1B1 gene expression ([2]; HepG2, treated 72 hours)?
**A.** Its SLCO1B1 gene expression is 120.17 transcripts per million.

**Q.** And the SLCO1B3 gene expression ([2]; HepG2, treated 72 hours)?
**A.** Its SLCO1B3 gene expression is 18.83 transcripts per million.

**Q.** And the UGT1A1 gene expression ([2]; HepG2, treated 72 hours)?
**A.** The UGT1A1 gene expression was 16.61 transcripts per million.

**Q.** And the UGT1A6 gene expression ([2]; HepG2, treated 72 hours)?
**A.** Its UGT1A6 gene expression is 835.05 transcripts per million.

**Q.** And the UGT1A9 gene expression ([2]; HepG2, treated 72 hours)?
**A.** The UGT1A9 gene expression was 99.71 transcripts per million.

**Q.** What about the “expression of hepatic nuclear receptors (CAR, FXR, LXR, PPAR, PXR, RAR), change >3-fold” value ([2]; HepG2 cells) of the same molecule?
**A.** The value was “did not significantly change”.

**Q.** And the “expression of hepatic nuclear receptors (CAR, FXR, LXR, PPAR, PXR, RAR), change >3-fold” value ([3]; PHHs)?
**A.** The value was “did not significantly change”.

**Q.** And the AFP gene expression [3, 8]?
**A.** The AFP gene expression was 5.79 transcripts per million.

**Q.** What about the ALB gene expression [3, 8] of the same molecule?
**A.** Its ALB gene expression is 1360.25 transcripts per million.

**Q.** What about the CD81 gene expression [3, 8] of the same molecule?
**A.** The CD81 gene expression was 417.56 transcripts per million.

**Q.** What about the CYP1A2 gene expression [3, 8] of the same molecule?
**A.** Its CYP1A2 gene expression is 68.21 transcripts per million.

**Q.** What about the CYP1B1 gene expression [3, 8] of the same molecule?
**A.** Its CYP1B1 gene expression is 30.96 transcripts per million.

**Q.** And the CYP2C9 gene expression [3, 8]?
**A.** Its CYP2C9 gene expression is 77.04 transcripts per million.

**Q.** And the CYP2D6 gene expression [3, 8]?
**A.** The CYP2D6 gene expression was 1.81 transcripts per million.

**Q.** And the CYP2E1 gene expression [3, 8]?
**A.** Its CYP2E1 gene expression is 17.69 transcripts per million.

**Q.** And the CYP3A4 gene expression [3, 8]?
**A.** Its CYP3A4 gene expression is 43.64 transcripts per million.

**Q.** What about the SLC10A1 gene expression [3, 8] of the same molecule?
**A.** Its SLC10A1 gene expression is 0.00 transcripts per million.

**Q.** What about the SLCO1B1 gene expression [3, 8] of the same molecule?
**A.** The SLCO1B1 gene expression was 153.15 transcripts per million.

**Q.** What about the SLCO1B3 gene expression [3, 8] of the same molecule?
**A.** The SLCO1B3 gene expression was 14.65 transcripts per million.

**Q.** And the UGT1A1 gene expression [3, 8]?
**A.** Its UGT1A1 gene expression is 47.57 transcripts per million.

**Q.** And the UGT1A6 gene expression [3, 8]?
**A.** Its UGT1A6 gene expression is 671.53 transcripts per million.

**Q.** What about the UGT1A9 gene expression [3, 8] of the same molecule?
**A.** Its UGT1A9 gene expression is 81.41 transcripts per million.

**Q.** And the “CYP2C9 activity (luminescent metabolite formation), increase over vehicle control” value [4]?
**A.** The value was > 10 fold and 10 fold.

**Q.** What about the “HepG2 viability / cell growth” value [5] of the same molecule?
**A.** Its value is “significant inhibition of cell growth; also recorded: increased cell death and growth arrest”.

**Q.** And the “formation of APAP-glucuronide” value [6]?
**A.** The value was “induced the formation”.

**Q.** And the “formation of APAP-glutathione” value [6]?
**A.** The value was “induced the formation”.

**Q.** And the “formation of APAP-sulphate” value [6]?
**A.** Its value is “increased formation”.

**Q.** And the “rate of formation of all APAP metabolites versus PHHs” value [6]?
**A.** Its value is “comparable rate to mature adult PHHs”.

**Q.** What about the “cells expressing both ALB and AFP” value [7] of the same molecule?
**A.** Its value is 100%.
